Test results published in patent publication US20230381077A1, “Antibacterial And Deodorizing Composition, And Preparation Method Therefor” (LG Chem, Ltd., priority 2021, published 2023).

Assays:
E. coli = test: Antibacterial power measurement of first compound (bacterial inhibition rate, broth, absorbance 600 nm); type: cell-based; settings: Escherichia coli, 0.01 g first compound in 25 ml broth, 3,000 CFU/ml, 35° C. for 16 hours
Proteus mirabilis = test: as above; type: cell-based; settings: 0.01 g first compound in 25 ml broth, 3,000 CFU/ml, 35° C. for 16 hours

Compound	inhibition of growth at 400 µg/mL (E. coli)	inhibition of growth at 400 µg/mL (Proteus mirabilis)	inhibition of growth at 400 µg/mL (E. coli; 16 h)	inhibition of growth at 400 µg/mL (Proteus mirabilis; 16 h)
CCCC[N+](C)(CCO)CCO [Antibacterial Deodorant Monomer G]	15.2%	18.3%		
CCCCCCCCCCCC[N+](CCO)(CCCCCCCCCC)CCCCCCCCCCCC [reference compound]	79.8%	81.3%		
CCCCCCCCCC[N+](C)(CCO)CCO [Antibacterial Deodorant Monomer A]	98.9%	99.9%		
CCCCCCCCCC[N+](C)(C)CCO [Antibacterial Deodorant Monomer D]	94.4%	91.7%		
CCCCCCCCCCCC[N+](C)(C)CCO [Antibacterial Deodorant Monomer E]	96.1%	96.9%		
CCCCCCCCCCCC[N+](C)(C)CCCCCCCCCCCC [Didodecyldimethylammonium chloride, reference compound]	90.1%	88.5%		
CCCCCCCCCC[N+](C)(C)CCCCCCCCO [reference compound]	82.1%	85.1%		
CCCCCCCCCCCCCCCC[N+](C)(C)C [Hexadecyltrimethylammonium chloride, reference compound]			92.1%	93.5%
CCCCCCCCCC[N+](C)(C)CCO [Antibacterial Deodorant Monomer F]			96.4%	83.1%
N=C(N)N [Guanidine, reference compound]	96.5%	97.2%		
CCCCCCCC[N+](C)(CCO)CCO [Antibacterial Deodorant Monomer B]	89.3%	91.2%		
